# Measured values: ChEMBL document CHEMBL4602676, “Discovery and Development of 3-(6-Chloropyridine-3-yloxymethyl)-2-azabicyclo[3.1.0]hexane Hydrochloride (SUVN-911): A Novel, Potent, Selective, and Orally Active Neuronal Nicotinic Acetylcholine α4β2 Receptor Antagonist for the Treatment of Depression” (J Med Chem, 2020)
# Experiments:
# [1] = AUC (0 to t) in Beagle dog at 3 mg/kg, po by LC-MS/MS analysis; assay type: ADME, organism-based, Canis lupus familiaris; details: in vivo
# [2] = Tmax in Beagle dog at 3 mg/kg, po by LC-MS/MS analysis; assay type: ADME, organism-based, Canis lupus familiaris; details: in vivo
# [3] = Protein binding in human plasma assessed as unbound fraction at […] incubated for 6 hrs by LC-MS/MS analysis; assay type: ADME, cell-free
# [4] = Clearance in Beagle dog at 1 mg/kg, iv by LC-MS/MS analysis; assay type: ADME, organism-based, Canis lupus familiaris; details: in vivo
# [5] = Genotoxicity in Salmonella typhimurium TA1535 in absence of metabolic activation; assay type: toxicity; details: salmonella enterica subsp. enterica serovar typhimurium
# [6] = target: T1, Neuronal acetylcholine receptor; alpha4/beta2 (Homo sapiens, UniProt P17787+P43681); assay: Displacement of [3H]cytisine from human alpha4beta2 nAChR expressed in CHOK1 cell membrane by microbeta scintillation counting method; assay type: cell membranes, CHO-K1
# [7] = Toxicity in telemetered Beagle dog assessed as change in body weight up to 25 mg/kg, po; assay type: organism-based, Canis lupus familiaris; details: in vivo
# [8] = system: Rattus norvegicus; assay: Antidepressant activity in Wistar rat assessed as immobility time at 10.0 mg/kg, po measured for 5 mins by forced swim test (reference value: 241.9 to 281.6 sec); assay type: functional
# [9] = target: T2, Solute carrier family 22 member 1 (Homo sapiens, UniProt O15245); assay: Inhibition of OCT1 (unknown origin)
# T2 sequence (O15245 whole entry): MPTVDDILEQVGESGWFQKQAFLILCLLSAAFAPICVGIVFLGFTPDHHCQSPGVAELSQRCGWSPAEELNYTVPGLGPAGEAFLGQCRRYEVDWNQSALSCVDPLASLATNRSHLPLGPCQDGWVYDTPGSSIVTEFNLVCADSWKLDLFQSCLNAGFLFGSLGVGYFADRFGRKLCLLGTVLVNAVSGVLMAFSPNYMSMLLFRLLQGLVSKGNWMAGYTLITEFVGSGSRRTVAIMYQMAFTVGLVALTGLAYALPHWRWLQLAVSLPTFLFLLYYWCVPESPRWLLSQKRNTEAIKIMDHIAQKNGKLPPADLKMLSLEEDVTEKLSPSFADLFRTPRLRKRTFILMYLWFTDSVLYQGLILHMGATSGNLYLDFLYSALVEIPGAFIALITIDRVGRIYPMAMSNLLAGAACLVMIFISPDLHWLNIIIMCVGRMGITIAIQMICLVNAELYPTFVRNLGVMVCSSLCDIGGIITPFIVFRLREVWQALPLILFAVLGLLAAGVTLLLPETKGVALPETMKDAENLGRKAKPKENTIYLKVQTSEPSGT
# [10] = Genotoxicity in Salmonella typhimurium TA98 in presence of metabolic activation; assay type: toxicity; details: salmonella enterica subsp. enterica serovar typhimurium
# [11] = Oral bioavailability in Beagle dog at 3 mg/kg by LC-MS/MS analysis; assay type: ADME, organism-based, Canis lupus familiaris; details: in vivo
# [12] = target: Neuronal acetylcholine receptor; alpha3/beta4 (Homo sapiens, UniProt P30926+P32297); assay: Displacement of [3H]epibatidine from human alpha3beta4 nAChR expressed in IMR32 cell membrane by microbeta scintillation counting method; assay type: cell membranes, IMR-32
# [13] = target: T3, Solute carrier organic anion transporter family member 1B1 (Homo sapiens, UniProt Q9Y6L6); assay: Inhibition of OATP1B1 (unknown origin)
# T3 sequence (Q9Y6L6 whole entry): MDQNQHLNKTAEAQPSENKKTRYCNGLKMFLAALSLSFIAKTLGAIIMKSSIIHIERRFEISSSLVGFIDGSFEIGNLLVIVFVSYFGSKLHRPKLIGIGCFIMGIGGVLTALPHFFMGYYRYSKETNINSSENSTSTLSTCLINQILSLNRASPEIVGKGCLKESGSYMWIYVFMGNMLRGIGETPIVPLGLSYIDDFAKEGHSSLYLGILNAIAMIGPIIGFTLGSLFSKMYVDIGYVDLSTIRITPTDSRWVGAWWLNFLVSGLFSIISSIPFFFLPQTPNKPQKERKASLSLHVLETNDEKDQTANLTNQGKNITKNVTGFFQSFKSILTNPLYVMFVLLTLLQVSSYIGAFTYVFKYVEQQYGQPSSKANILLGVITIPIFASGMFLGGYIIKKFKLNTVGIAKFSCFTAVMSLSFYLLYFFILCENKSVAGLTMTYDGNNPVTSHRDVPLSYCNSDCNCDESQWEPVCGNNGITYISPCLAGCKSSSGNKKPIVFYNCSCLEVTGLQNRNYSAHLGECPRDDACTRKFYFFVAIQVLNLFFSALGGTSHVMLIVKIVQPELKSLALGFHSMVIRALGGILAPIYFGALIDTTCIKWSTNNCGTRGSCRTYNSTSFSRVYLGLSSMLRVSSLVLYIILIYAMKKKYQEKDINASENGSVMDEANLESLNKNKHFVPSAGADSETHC
# [14] = target: Neuronal acetylcholine receptor; alpha4/beta2 (Rattus norvegicus, UniProt P09483+P12390); assay: In vivo receptor occupancy at alpha4beta2 nAChR in Wistar rat assessed as brain concentration pretreated for 15 mins followed by non radiolabelled ZW-104 tracer treatment and measured after 45 mins by LC-MS/MS analysis; assay type: functional, organism-based
# [15] = Genotoxicity in Salmonella typhimurium TA1537 in absence of metabolic activation; assay type: toxicity; details: salmonella enterica subsp. enterica serovar typhimurium
# [16] = target: T4, Solute carrier organic anion transporter family member 1B3 (Homo sapiens, UniProt Q9NPD5); assay: Inhibition of OATP1B3 (unknown origin)
# T4 sequence (Q9NPD5 whole entry): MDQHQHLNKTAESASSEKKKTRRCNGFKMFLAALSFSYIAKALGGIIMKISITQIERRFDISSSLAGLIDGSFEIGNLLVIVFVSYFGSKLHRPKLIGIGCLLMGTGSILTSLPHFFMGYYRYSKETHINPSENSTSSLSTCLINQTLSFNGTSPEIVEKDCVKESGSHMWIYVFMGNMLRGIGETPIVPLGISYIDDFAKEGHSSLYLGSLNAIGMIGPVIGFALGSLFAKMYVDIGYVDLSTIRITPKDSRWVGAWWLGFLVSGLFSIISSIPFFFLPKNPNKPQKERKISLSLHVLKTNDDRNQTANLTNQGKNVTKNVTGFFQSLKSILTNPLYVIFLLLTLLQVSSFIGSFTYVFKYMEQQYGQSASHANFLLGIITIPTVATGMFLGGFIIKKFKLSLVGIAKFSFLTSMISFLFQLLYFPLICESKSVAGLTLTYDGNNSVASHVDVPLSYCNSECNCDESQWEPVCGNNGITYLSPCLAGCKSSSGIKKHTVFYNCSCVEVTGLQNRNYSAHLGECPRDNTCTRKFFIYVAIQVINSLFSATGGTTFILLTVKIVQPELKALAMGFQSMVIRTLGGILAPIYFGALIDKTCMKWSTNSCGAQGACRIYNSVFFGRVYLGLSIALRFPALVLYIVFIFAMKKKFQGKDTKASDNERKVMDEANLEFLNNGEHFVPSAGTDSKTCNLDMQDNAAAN
# [17] = Oral bioavailability in Wistar rat at 10 ml/kg measured upto 24 hrs by LC-MS/MS analysis; assay type: ADME, organism-based; details: in vivo
# [18] = Genotoxicity in Salmonella typhimurium TA1535 in presence of metabolic activation; assay type: toxicity; details: salmonella enterica subsp. enterica serovar typhimurium
# [19] = target: T1, Neuronal acetylcholine receptor; alpha4/beta2; assay: Antagonist activity at alpha4beta2 nAChR (unknown origin) expressed in HEK293 cells assessed as reduction in acetylcholine-induced currents at -80 mV holding potential by whole-cell patch clamp method; assay type: cell-based
# T1 sequence (P17787 whole entry): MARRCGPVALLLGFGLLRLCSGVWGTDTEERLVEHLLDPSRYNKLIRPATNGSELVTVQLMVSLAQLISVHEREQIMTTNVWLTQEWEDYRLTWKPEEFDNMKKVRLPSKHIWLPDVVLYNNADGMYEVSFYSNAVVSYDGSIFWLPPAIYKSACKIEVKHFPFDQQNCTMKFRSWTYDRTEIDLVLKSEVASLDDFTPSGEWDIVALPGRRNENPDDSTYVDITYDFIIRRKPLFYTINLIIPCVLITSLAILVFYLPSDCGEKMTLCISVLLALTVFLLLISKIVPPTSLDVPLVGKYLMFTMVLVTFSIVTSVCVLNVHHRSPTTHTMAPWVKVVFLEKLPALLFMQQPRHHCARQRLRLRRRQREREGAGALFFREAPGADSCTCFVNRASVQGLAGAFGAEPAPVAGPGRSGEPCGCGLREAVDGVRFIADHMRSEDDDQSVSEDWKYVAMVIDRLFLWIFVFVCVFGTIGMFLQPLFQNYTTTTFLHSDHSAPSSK
# T1 sequence (P43681 whole entry): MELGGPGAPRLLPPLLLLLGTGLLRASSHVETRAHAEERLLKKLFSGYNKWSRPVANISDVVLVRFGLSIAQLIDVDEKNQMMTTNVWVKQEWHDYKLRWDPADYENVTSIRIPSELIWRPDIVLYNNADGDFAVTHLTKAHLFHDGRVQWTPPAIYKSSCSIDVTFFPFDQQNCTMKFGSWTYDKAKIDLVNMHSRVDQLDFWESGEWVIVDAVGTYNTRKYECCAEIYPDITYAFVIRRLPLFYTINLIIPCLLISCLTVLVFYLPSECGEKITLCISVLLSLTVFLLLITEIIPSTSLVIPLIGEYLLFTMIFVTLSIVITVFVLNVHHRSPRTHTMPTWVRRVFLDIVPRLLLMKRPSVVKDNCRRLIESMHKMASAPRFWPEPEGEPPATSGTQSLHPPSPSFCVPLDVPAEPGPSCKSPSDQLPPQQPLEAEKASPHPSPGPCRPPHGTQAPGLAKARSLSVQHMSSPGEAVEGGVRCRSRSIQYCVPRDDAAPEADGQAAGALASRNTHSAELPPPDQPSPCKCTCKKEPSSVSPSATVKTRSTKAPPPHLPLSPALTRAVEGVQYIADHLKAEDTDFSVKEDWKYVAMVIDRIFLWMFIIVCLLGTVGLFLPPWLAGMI
# Chain of Neuronal acetylcholine receptor; alpha3/beta4 (P30926 whole entry): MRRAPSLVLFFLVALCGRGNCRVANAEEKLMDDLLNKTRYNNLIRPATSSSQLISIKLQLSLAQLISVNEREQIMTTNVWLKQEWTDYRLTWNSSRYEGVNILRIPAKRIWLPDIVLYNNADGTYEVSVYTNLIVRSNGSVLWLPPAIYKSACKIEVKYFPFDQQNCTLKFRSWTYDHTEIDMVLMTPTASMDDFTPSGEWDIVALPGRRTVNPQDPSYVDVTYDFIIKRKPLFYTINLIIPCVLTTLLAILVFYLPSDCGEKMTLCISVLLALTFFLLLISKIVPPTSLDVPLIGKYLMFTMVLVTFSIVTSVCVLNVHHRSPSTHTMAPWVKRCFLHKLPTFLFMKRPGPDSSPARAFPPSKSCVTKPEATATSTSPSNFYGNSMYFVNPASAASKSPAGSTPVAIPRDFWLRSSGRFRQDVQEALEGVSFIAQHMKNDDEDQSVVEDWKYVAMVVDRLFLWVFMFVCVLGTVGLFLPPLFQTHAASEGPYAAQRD
# Chain of Neuronal acetylcholine receptor; alpha3/beta4 (P32297 whole entry): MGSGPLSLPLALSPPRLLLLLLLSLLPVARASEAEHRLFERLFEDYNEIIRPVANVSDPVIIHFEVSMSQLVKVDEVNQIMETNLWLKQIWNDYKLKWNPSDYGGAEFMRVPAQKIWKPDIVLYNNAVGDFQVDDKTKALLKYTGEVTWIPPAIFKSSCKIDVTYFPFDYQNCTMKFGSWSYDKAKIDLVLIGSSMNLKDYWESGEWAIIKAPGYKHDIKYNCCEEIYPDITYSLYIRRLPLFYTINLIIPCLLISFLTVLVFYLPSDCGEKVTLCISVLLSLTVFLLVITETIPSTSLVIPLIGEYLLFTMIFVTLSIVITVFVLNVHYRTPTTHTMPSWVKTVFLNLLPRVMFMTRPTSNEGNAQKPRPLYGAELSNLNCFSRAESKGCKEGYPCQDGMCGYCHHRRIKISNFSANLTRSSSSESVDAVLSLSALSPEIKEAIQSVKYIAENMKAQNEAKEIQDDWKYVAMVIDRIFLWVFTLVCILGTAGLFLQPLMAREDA
# Chain of Neuronal acetylcholine receptor; alpha4/beta2 (Rattus norvegicus, UniProt P09483+P12390) (P09483 whole entry): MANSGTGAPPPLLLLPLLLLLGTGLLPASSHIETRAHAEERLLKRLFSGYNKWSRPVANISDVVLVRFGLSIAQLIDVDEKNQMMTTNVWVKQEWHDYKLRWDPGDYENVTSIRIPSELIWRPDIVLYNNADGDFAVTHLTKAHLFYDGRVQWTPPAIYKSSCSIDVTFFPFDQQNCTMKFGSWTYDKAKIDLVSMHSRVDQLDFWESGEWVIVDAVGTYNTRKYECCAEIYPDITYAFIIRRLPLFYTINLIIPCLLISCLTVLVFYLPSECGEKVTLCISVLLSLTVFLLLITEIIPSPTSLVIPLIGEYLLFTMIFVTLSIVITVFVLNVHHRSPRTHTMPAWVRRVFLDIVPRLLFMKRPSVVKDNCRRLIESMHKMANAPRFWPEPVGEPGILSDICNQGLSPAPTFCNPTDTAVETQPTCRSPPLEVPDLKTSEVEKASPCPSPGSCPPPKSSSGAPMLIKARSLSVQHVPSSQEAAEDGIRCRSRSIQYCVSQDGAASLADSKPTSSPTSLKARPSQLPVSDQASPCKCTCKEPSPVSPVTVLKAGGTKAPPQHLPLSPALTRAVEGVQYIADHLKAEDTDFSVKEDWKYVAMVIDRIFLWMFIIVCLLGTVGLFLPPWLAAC
# Chain of Neuronal acetylcholine receptor; alpha4/beta2 (Rattus norvegicus, UniProt P09483+P12390) (P12390 whole entry): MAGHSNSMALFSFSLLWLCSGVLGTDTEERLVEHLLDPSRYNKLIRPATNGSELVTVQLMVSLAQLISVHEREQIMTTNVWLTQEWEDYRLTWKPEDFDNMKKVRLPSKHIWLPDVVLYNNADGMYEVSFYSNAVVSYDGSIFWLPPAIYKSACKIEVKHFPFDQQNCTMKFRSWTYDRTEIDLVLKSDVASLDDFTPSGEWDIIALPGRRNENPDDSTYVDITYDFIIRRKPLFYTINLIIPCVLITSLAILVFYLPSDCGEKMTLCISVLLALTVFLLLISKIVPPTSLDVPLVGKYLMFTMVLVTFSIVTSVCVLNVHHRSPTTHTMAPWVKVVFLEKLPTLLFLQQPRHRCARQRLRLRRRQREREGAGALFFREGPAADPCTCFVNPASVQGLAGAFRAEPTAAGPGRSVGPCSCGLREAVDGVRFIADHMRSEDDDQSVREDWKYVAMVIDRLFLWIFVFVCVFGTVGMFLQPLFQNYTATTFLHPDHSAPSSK
smiles,measurement,setting,value
Cl.Clc1ccc(OC[C@@H]2C[C@H]3C[C@H]3N2)cn1,AUC(0-t),[1],4350 ng·h/mL
same,Tmax,[2],18 min
same,fraction unbound at 6 h,[3],0.21
same,clearance,[4],10 mL/min/kg
same,Activity,[5],Non-Toxic
same,Ki,[6],0.0015 µM
same,Activity,[7],Non-Toxic
same,Time,[8],81.5 s
same,inhibition (INH),[9],Not Active
same,Activity,[10],Non-Toxic
same,bioavailability,[11],83%
same,Ki,[12],> 10 µM
same,inhibition (INH),[13],Not Active
same,EC50,[14],334 µM
same,Activity,[15],Non-Toxic
same,inhibition (INH),[16],Not Active
same,bioavailability,[17],66%
same,Activity,[18],Non-Toxic
same,IC50,[19],7.31 µM
